# Columns and labels:
# [1] = test system: wild type (S-416) sesame plants; experiment: Herbicides dose-response assay (post-emergence, pots), wild type; assay type: in vivo, Sesamum indicum
# SiRM plants [2] = experiment: Roots development under increasing dosages of Imazapic; assay type: in vivo, Sesamum indicum; conditions: pre-emergence; 24, 48, 96 and 192 g a.i. ha^−1; sandy soil; 14 DAT
# [3] = test system: resistant plants of the invention (SiRM); experiment: 2021 field trial, Imazapic pre-emergence, sesame performance; assay type: in vivo, Sesamum indicum; conditions: pre-emergence Imazapic 48 g a.i. ha^−1
# Procedure: (§1) An additional field experiment was conducted during the summer of 2021 at the Experimental Farm of the Hebrew University of Jerusalem, Rehovot, Israel. A split-plot random block design with six replicates was applied. Treatments included: weed-free plots (i.e., manual weeding), untreated control (i.e., herbicide-free treatment) and application of Imazapic (48 g a.i. ha^−1) pre-germination. The plot size was 3.6 m×0.8 m (10 cm between plants) with two rows per plot. To evaluate the efficacy of weed control, two weeds were sown on the sesame sowing lines (Amaranthus Palmeri, 500 seeds per plot, and Abutilon Theophrastus, 70 seeds per plot). Phenological characterization was conducted during the growing season for the flowering date, the number of brunches per plant and the height to the first capsule. At the end of the growing season, the number of weeds per plot was counted and weeds were harvested for dry weight measurements. Sesame plants were harvested 1 m from the middle of the plot, samples were threshed using a laboratory thresher (Wintersteiger AG LD 350, Austria), and after sifting, the seeds were weighed to obtain seed yield.
# Abutilon Theophrastus = experiment: 2021 field trial, Imazapic pre-emergence, weed control; assay type: in vivo; conditions: pre-emergence Imazapic 48 g a.i. ha^−1; field 2021
# Procedure: as §1
# Amaranthus palmeri = experiment: as above; assay type: in vivo; conditions: pre-emergence Imazapic 48 g a.i. ha^−1; field 2021
# Procedure: as §1
# SiRM plants [4] = experiment: Field observation after Imazapic recommended dose, SiRM; assay type: in vivo, Sesamum indicum; conditions: Imazapic 48 g a.i. h^−1
# WT plants [5] = experiment: Field observation after Imazapic recommended dose, WT; assay type: in vivo, Sesamum indicum; conditions: Imazapic 48 g a.i. h^−1
# [6] = test system: SiRM plants (mutant SiALS Ala188Val)
# WT plants [7] = experiment: Imazapic pre-emergence pot experiment, WT; assay type: in vivo, Sesamum indicum
# SiRM plants [8] = conditions: pre-emergence
structure (smiles),measurement,setting,value
"Cc1cnc(C2=NC(C)(C(C)C)C(=O)N2)c(C(=O)O)c1 (centres unmarked) [Imazapic, 5-methyl-2-(4-methyl-5-oxo-4-propan-2-yl-1H-imidazol-2-yl) pyridine-3-carboxylic acid]",reduction in growth of WT,"[1]; at 6 g a.i. h^−1, P=0.0055",18%
same,ED50 WT,"[1]; herbicide rate reducing plant growth (shoot DW) by 50%, 16 DAT, sprayed at two true leaves, n=5",236 g a.i. ha^−1
same,"root volume, SiRM",SiRM plants [2],didn't show any significant differences in root volume
same,height to the first capsule,[3],reduced height to the first capsule
same,effect on growth of the resistant plants,[3]; compared with weed-free control,no deleterious effects
same,control of Abutilon,Abutilon Theophrastus,didn't develop beyond the cotyledons
same,control of A. Palmeri,Amaranthus palmeri,didn't emerge (full-control)
same,state of SiRM plants in the field,SiRM plants [4],only slightly affected and showed a five-day delay in shoot development and flowering time
same,state of WT plants in the field,WT plants [5],dead already 10 DAT
same,rate at which SiRM exhibited severe damage symptoms,[6]; 16X,768 g a.i. h^−1
same,ED50 SiRM,"[6]; herbicide rate reducing plant growth (shoot DW) by 50%, 16 DAT, n=5, calculated from fitted curve, for Imazamox above the tested rates",563 g a.i. ha^−1
same,dose up to which SiRM plants were not affected,[6]; post-emergence dose-response,≤ 96 g a.i. h^−1
same,RI (resistance index),[6]; resistance/susceptible ratio of the ED50 (SiRM vs WT),2.4
same,development of WT plants,WT plants [7]; 144 g a.i. h^−1,fully controlled and did not develop beyond the growth of the cotyledons
same,"canopy coverage, WT","WT plants [7]; 144 g a.i. h^−1, 14 days after sowing, control 2.23, P=0.0008",0.27 % of coverage
same,"root length, WT","WT plants [7]; 144 g a.i. h^−1, control 82",5 mm
same,"survival rate, SiRM","SiRM plants [8]; 48, 96 and 144 g a.i. h^−1, clay soil",100%
same,development of SiRM plants,SiRM plants [8]; 144 g a.i. h^−1,developed normally without any visual differences compared to the untreated control
same,"canopy coverage, SiRM","SiRM plants [8]; 144 g a.i. h^−1, 14 days after sowing",maintained similar values
same,"root length, SiRM","SiRM plants [8]; 144 g a.i. h^−1, control 72, P=0.106",85 mm

# Source: patent US20240298601A1, “SESAME PLANTS RESISTANT TO ACETOLACTATE SYNTHASE-INHIBITING HERBICIDES, COMPOSITIONS AND METHODS FOR PRODUCING SAME” (Yissum Research Development Company of The Hebrew …, priority 2021, published 2024)
